From US8420657B2 (Novartis AG, priority 2008, dated 2013)

What was measured:
[1] = test system: JAK2-dependent nuclear translocation of STAT5-GFP in U-2 OS osteosarcoma cells; experiment: STAT5 nuclear translocation assay (Cellomics), rhEpo stimulated U-2 OS STAT5-GFP cells; type: cell-based; conditions: Homo sapiens, U2OS; STAT5 translocation pathway
In short: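 U-2 OS cells stably expressing STAT5a-GFP and EpoR pre-treated with compound (final 10 μM to 0.003 μM, 0.1% DMSO) for 30 min at 37° C., then stimulated 1 h with 5 U/ml rhEpo. Nuclear-cytoplasmic GFP differential quantified by automated imaging (≥1000 cells/well, Hoechst nuclear mask). IC50 from % translocation normalized to untreated and DMSO-stimulated controls.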

[2] = target: T1, GST-JAK2(808-1132) (Homo sapiens, UniProt O60674); experiment: JAK2 kinase assay (Caliper mobility shift, LabChip 3000); type: biochemical
T1 construct: GST-JAK2(808-1132); purchased Invitrogen (Carlsbad, USA) #4288
In short: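 Recombinant GST-JAK2(808-1132) kinase domain with FITC-labelled JAK3tide peptide substrate and ATP; 60 min at 30 °C, EDTA stop. Substrate/product ratio read by microfluidic mobility shift; compounds at 8 final concentrations, 10 to 0.003 μM.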

T1 sequence (O60674 808-1132): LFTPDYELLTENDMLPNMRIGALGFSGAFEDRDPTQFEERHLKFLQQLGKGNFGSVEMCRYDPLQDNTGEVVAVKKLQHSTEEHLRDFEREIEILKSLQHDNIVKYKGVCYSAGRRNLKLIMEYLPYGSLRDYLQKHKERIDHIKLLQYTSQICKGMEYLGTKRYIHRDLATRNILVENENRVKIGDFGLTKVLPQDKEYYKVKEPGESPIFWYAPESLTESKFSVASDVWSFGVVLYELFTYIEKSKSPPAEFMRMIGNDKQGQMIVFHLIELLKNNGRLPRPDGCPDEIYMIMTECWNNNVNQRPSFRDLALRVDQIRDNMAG

Row | IC50 [1] | IC50 [2] | Compound
1 | 71 nM | ≤ 3 nM | Fc1cc(-n2ccc3cnc(Nc4ccc(CN5CCOCC5)nc4)nc32)cc(F)c1CN1CCOCC1 [Example 480, [7-(3,5-Difluoro-4-morpholin-4-ylmethyl-phenyl)-7H-pyrrolo[2,3-d]pyrimidin-2-yl]-(6-morpholin-4-ylmethyl-pyridin-3-yl)-amine]
2 | 150 nM | ≤ 3 nM | COC1CN(Cc2c(F)cc(-n3ccc4cnc(Nc5ccc(C)c(CN6CCNCC6)c5)nc43)cc2F)C1 [Example 482, {7-[3,5-Difluoro-4-(3-methoxy-azetidin-1-ylmethyl)-phenyl]-7H-pyrrolo[2,3-d]pyrimidin-2-yl}-(4-methyl-3-piperazin-1-ylmethyl-phenyl)-amine]
3 | 12.3 nM | ≤ 3 nM | Cc1cc(Nc2ncc3ccn(-c4cc(F)c(CN5CCOCC5=O)c(F)c4)c3n2)cnc1N1C[C@@H](C)N[C@@H](C)C1 [Example 483, 4-(4-{2-[6-(cis-3,5-Dimethyl-piperazin-1-yl)-5-methyl-pyridin-3-ylamino]-pyrrolo[2,3-d]pyrimidin-7-yl}-2,6-difluoro-benzyl)-morpholin-3-one]
4 | 67 nM | ≤ 3 nM | C[C@@H]1CN(Cc2ccc(Nc3ncc4ccn(-c5cc(F)c(CN6CCOCC6=O)c(F)c5)c4n3)cc2)C[C@H](C)N1 [Example 484, 4-(4-{2-[4-(cis-3,5-Dimethyl-piperazin-1-ylmethyl)-phenylamino]-pyrrolo[2,3-d]pyrimidin-7-yl}-2,6-difluoro-benzyl)-morpholin-3-one]
5 | 110 nM | ≤ 3 nM | Cc1ccc(Nc2ncc3ccn(-c4cc(F)c(CN5CCOCC5=O)c(F)c4)c3n2)cc1CN1CCNCC1 [Example 485, 4-{2,6-Difluoro-4-[2-(4-methyl-3-piperazin-1-ylmethyl-phenylamino)-pyrrolo[2,3-d]pyrimidin-7-yl}-benzyl]-morpholin-3-one]
6 | 487 nM | ≤ 3 nM | Fc1cc(-n2ccc3cnc(Nc4ccc(CN5CCNCC5)nc4)nc32)cc(F)c1CN1CCOCC1 [Example 486, [7-(3,5-Difluoro-4-morpholin-4-yl methyl-phenyl)-7H-pyrrolo[2,3-d]pyrimidin-2-yl]-(6-piperazin-1-ylmethyl-pyridin-3-yl)-amine]
7 | 5.8 nM | ≤ 3 nM | Cc1cc(Nc2ncc3ccn(-c4cc(F)c(CN5CCOCC5)c(F)c4)c3n2)cnc1N1CCNCC1 [Example 487, [7-(3,5-Difluoro-4-morpholin-4-ylmethyl-phenyl)-7H-pyrrolo[2,3-d]pyrimidin-2-yl]-(5-methyl-6-piperazin-1-yl-pyridin-3-yl)-amine]
8 | 40.5 nM | ≤ 3 nM | Cc1cc(Nc2ncc3ccn(-c4cc(F)c(CN5CCOCC5)c(F)c4)c3n2)cnc1N1CCNC(C)(C)C1 [Example 488, [7-(3,5-Difluoro-4-morpholin-4-ylmethyl-phenyl)-7H-pyrrolo[2,3-d]pyrimidin-2-yl]-[6-(dimethyl-piperazin-1-yl)-5-methyl-pyridin-3-yl]-amine]
9 | 12 nM | 0.7 nM | C[C@@H]1CN(c2ncc(Nc3ncc4ccn(-c5cc(F)c(CN6CCOCC6)c(F)c5)c4n3)cc2Cl)C[C@H](C)N1 [Example 489, [5-Chloro-6-(cis-3,5-dimethyl-piperazin-1-yl)-pyridin-3-yl]-[7-(3,5-difluoro-4-morpholin-4-ylmethyl-phenyl)-7H-pyrrolo[2,3-d]pyrimidin-2-yl]-amine]
10 | 14 nM | 3.4 nM | C[C@@H]1CN(c2ncc(Nc3ncc4ccn(-c5cc(F)c(CN6CCOCC6)c(F)c5)c4n3)cc2C#N)C[C@H](C)N1 [Example 490, 5-[7-(3,5-Difluoro-4-morpholin-4-ylmethyl-phenyl)-7H-pyrrolo[2,3-d]pyrimidin-2-ylamino]-2-(cis-3,5-dimethyl-piperazin-1-yl)-nicotinonitrile]
11 | 15 nM | ≤ 3 nM | O=C1CN(c2ncc(Nc3ncc4ccn(-c5cc(F)c(CN6CCOCC6)c(F)c5)c4n3)cc2Cl)CCN1 [Example 491, 4-{3-Chloro-5-[7-(3,5-difluoro-4-morpholin-4-ylmethyl-phenyl)-7H-pyrrolo[2,3-d]pyrimidin-2-ylamino]-pyridin-2-yl}-piperazin-2-one]
12 | 55.5 nM | 2.2 nM | CC1(C)NCCN(c2ccc(Nc3ncc4ccn(-c5cc(F)c(CN6CCOCC6)c(F)c5)c4n3)cn2)C1=O [Example 492, 1-{5-[7-(3,5-Difluoro-4-morpholin-4-ylmethyl-phenyl)-7H-pyrrolo[2,3-d]pyrimidin-2-ylamino]-pyridin-2-yl}-3,3-dimethyl-piperazin-2-one]
13 | 104 nM | ≤ 3 nM | Cc1cc(Nc2ncc3ccn(-c4cc(F)c(CN5CCOCC5)c(F)c4)c3n2)cnc1N1CCNC(C)(C)C1=O [Example 493, 1-{5-[7-(3,5-Difluoro-4-morpholin-4-ylmethyl-phenyl)-7H-pyrrolo[2,3-d]pyrimidin-2-ylamino]-3-methyl-pyridin-2-yl}-3,3-dimethyl-piperazin-2-one]
14 | 394 nM | ≤ 3 nM | CN1CCN(Cc2cc(Nc3ncc4ccn(-c5cc(F)c(CN6CCOCC6)c(F)c5)c4n3)ccc2Cl)CC1 [Example 494, [4-Chloro-3-(4-methyl-piperazin-1-yl methyl)-phenyl]-[7-(3,5-difluoro-4-morpholin-4-ylmethyl-phenyl)-7H-pyrrolo[2,3-d]pyrimidin-2-yl]-amine]
15 | 51 nM | ≤ 3 nM | Cc1cc(Nc2ncc3ccn(-c4cc(F)c(CN5CCOCC5)c(F)c4)c3n2)cnc1N1CCNCC1=O [Example 495, 1-{5-[7-(3,5-Difluoro-4-morpholin-4-ylmethyl-phenyl)-7H-pyrrolo[2,3-d]pyrimidin-2-ylamino]-3-methyl-pyridin-2-yl}-piperazin-2-one]
16 | 97.2 nM | ≤ 3 nM | C[C@@H]1CN(c2ncc(Nc3ncc4ccn(-c5cc(F)c(CN6CCOCC6)c(F)c5)c4n3)cc2C(F)(F)F)C[C@H](C)N1 [Example 496, [7-(3,5-Difluoro-4-morpholin-4-ylmethyl-phenyl)-7H-pyrrolo[2,3-d]pyrimidin-2-yl]-[6-(cis-3,5-dimethyl-piperazin-1-yl)-5-trifluoromethyl-pyridin-3-yl]-amine]
17 | 7.7 nM | ≤ 3 nM | COc1cc(Nc2ncc3ccn(-c4cc(F)c(CN5CCOCC5)c(F)c4)c3n2)cnc1N1C[C@@H](C)N[C@@H](C)C1 [Example 497, [7-(3,5-Difluoro-4-morpholin-4-ylmethyl-phenyl)-7H-pyrrolo[2,3-d]pyrimidin-2-yl]-[6-(cis-3,5-dimethyl-piperazin-1-yl)-5-methoxy-pyridin-3-yl]-amine]
18 | 83 nM | ≤ 3 nM | O=C1CNCCN1Cc1ccc(Nc2ncc3ccn(-c4cc(F)c(CN5CCOCC5)c(F)c4)c3n2)cc1 [Example 498, 1-{4-[7-(3,5-Difluoro-4-morpholin-4-ylmethyl-phenyl)-7H-pyrrolo[2,3-d]pyrimidin-2-ylamino]-benzyl}-piperazin-2-one]
19 | 220 nM | 4.8 nM | C[C@@H]1CN(c2ccc(Nc3ncc4ccn(-c5ccc(C(=O)N6CCOCC6)c(F)c5)c4n3)cn2)C[C@H](C)N1 [Example 499, (4-{2-[6-(cis-3,5-Dimethyl-piperazin-1-yl)-pyridin-3-ylamino]-pyrrolo[2,3-d]pyrimidin-7-yl}-2-fluoro-phenyl)-morpholin-4-yl-methanone]
20 | 16 nM | ≤ 3 nM | O=C1CN(c2cc(Nc3ncc4ccn(-c5cc(F)c(CN6CCOCC6)c(F)c5)c4n3)ccn2)CCN1 [Example 500, 4-{4-[7-(3,5-Difluoro-4-morpholin-4-ylmethyl-phenyl)-7H-pyrrolo[2,3-d]pyrimidin-2-ylamino]-pyridin-2-yl}-piperazin-2-one]
21 | 38 nM | ≤ 3 nM | Fc1cc(-n2ccc3cnc(Nc4ccc(C5CCNCC5)nc4)nc32)cc(F)c1CN1CCOCC1 [Example 501, [7-(3,5-Difluoro-4-morpholin-4-ylmethyl-phenyl)-7H-pyrrolo[2,3-d]pyrimidin-2-yl]-(1,2′,3′,4′,5′,6′-hexahydro-[2,4′]bipyridinyl-5-yl)-amine]
22 | 17 nM | ≤ 3 nM | Fc1cc(-n2ccc3cnc(Nc4cnc(N5CCNCC5)c(Cl)c4)nc32)cc(F)c1CN1CCOCC1 [Example 502, (5-Chloro-6-piperazin-1-yl-pyridin-3-yl)-[7-(3,5-difluoro-4-morpholin-4-ylmethyl-phenyl)-7H-pyrrolo[2,3-d]pyrimidin-2-yl]-amine]
23 | 81.5 nM | ≤ 3 nM | CN1CCN(c2cc(Nc3ncc4ccn(-c5cc(F)c(CN6CCOCC6)c(F)c5)c4n3)ccn2)CC1=O [Example 504, 4-{4-[7-(3,5-Difluoro-4-morpholin-4-ylmethyl-phenyl)-7H-pyrrolo[2,3-d]pyrimidin-2-ylamino]-pyridin-2-yl}-1-methyl-piperazin-2-one]
24 | 60 nM | 4.1 nM | CN1CCN(Cc2ccc(Nc3ncc4ccn(-c5cc(F)c(CN6CCOCC6)c(F)c5)c4n3)cn2)CC1=O [Example 505, 4-{5-[7-(3,5-Difluoro-4-morpholin-4-methyl-phenyl)-7H-pyrrolo[2,3-d]pyrimidin-2-ylamino]-pyridin-2-ylmethyl}-1-methyl-piperazin-2-one]
25 | 0.2 nM | < 3 nM | Fc1cc(-n2ccc3cnc(Nc4cccc([C@H]5COCCN5)c4)nc32)cc(F)c1CN1CCOCC1 [Example 507, [7-(3,5-Difluoro-4-morpholin-4-ylmethyl-phenyl)-7H-pyrrolo[2,3-d]pyrimidin-2-yl]-((S)-3-morpholin-3-yl-phenyl)-amine]
